Assay results from ChEMBL document CHEMBL1201862, “PubChem BioAssay data set” (2004).
Activity calls are given as the source filed them.

How the values were obtained:
Galanin receptor type 3 = biological target: T1, Galanin receptor type 3 (Homo sapiens, UniProt O60755); assay: Fluorescence-based cell-based primary high throughput dose response assay to identify antagonists of the Galanin Receptor 3 (GalR3).; assay type: functional
T1 sequence (O60755 whole entry): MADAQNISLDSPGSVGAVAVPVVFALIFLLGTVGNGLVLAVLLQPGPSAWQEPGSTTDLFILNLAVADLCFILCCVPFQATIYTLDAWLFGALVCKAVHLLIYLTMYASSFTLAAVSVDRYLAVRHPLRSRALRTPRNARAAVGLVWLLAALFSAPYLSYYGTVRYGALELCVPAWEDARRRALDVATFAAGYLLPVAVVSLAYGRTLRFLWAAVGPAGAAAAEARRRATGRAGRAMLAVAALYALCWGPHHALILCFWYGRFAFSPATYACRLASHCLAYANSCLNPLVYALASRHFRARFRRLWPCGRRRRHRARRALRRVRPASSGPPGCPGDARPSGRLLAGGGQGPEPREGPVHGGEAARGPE

cells = assay type: functional, cell-based; settings: HEK-CNG
[1] = biological target: T2, Replicative DNA helicase DnaB (Mycobacterium tuberculosis, UniProt P9WMR3); assay: DnaB intein splicing inhibitors, dose response, biochemical, cell-free fluorescence (AID 449749); assay type: functional
T2 sequence (P9WMR3 whole entry): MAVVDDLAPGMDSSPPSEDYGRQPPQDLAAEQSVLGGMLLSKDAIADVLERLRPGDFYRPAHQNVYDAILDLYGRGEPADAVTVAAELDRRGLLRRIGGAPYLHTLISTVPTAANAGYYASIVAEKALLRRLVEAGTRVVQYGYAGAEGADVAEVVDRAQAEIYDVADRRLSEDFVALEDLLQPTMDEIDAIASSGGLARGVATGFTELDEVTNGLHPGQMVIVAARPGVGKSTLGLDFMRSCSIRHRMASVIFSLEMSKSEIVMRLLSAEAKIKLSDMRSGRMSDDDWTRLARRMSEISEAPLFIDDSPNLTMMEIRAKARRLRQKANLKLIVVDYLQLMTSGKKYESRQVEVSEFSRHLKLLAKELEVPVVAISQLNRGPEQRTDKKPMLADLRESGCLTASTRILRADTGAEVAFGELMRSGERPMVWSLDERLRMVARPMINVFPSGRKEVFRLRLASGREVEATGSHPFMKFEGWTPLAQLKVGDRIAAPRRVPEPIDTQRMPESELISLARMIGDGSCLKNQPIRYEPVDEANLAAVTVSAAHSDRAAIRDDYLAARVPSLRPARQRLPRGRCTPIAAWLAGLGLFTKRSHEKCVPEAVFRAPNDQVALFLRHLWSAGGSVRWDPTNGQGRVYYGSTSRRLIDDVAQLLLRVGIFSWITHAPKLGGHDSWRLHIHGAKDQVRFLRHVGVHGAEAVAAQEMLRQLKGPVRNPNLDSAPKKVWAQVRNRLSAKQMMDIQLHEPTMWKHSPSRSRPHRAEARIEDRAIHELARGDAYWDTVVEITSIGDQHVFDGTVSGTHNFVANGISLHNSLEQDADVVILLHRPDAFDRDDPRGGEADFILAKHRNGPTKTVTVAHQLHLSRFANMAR

Protein RecA = biological target: T3, Protein RecA (Mycobacterium tuberculosis, UniProt P9WHJ3); assay: Fluorescence Cell-Free Homogeneous Dose Retest to Identify Inhibitors of RecA-Intein Splicing Activity. [Related pubchem assays (depositor defined):AID2097, AID2223, AID489010, AID492950]; assay type: functional
T3 sequence (P9WHJ3 whole entry): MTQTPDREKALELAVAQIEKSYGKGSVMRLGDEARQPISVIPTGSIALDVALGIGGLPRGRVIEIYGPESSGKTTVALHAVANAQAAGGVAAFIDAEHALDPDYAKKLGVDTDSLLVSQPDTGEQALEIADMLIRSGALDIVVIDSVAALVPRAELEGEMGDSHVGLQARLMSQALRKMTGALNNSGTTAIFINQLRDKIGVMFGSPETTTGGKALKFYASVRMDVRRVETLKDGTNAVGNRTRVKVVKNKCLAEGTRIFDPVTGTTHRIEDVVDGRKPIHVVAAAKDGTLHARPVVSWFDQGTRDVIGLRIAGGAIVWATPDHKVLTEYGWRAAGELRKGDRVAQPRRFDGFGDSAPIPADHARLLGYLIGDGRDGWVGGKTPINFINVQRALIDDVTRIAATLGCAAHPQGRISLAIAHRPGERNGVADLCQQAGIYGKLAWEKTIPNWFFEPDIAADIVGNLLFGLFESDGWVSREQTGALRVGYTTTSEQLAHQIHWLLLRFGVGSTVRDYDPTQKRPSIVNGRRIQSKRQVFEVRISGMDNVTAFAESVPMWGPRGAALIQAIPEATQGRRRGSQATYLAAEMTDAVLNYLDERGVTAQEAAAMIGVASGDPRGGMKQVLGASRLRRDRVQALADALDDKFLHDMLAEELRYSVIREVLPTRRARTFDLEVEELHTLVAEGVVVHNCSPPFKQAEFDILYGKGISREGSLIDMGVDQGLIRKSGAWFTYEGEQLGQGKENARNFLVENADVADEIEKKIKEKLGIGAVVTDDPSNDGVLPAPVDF

INS1 = assay: beta cell apoptosis inhibitors, cytokine rescue, dose response, luminescence, retest (AID 449756); assay type: functional, cell-based; settings: Rattus norvegicus;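 also: cell death triggered by IL-1 beta plus TNF-alpha plus IFN-gamma mixture; protective hits raise ATP signal compared with cytokine alone wells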
[2] = human group III sPLA2 inhibitors, dose response, biochemical, QFRET, IC50 (AID 743457);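 also: green fluorescence rise as the enzyme cleaves BODIPY PC-A2 in liposomes; potency for inhibition of the enzyme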
fMet-Leu-Phe receptor = biological target: T4, fMet-Leu-Phe receptor (Homo sapiens, UniProt P21462); assay: FPR ligands, dose response (AID 519); assay type: functional
T4 sequence (P21462 whole entry): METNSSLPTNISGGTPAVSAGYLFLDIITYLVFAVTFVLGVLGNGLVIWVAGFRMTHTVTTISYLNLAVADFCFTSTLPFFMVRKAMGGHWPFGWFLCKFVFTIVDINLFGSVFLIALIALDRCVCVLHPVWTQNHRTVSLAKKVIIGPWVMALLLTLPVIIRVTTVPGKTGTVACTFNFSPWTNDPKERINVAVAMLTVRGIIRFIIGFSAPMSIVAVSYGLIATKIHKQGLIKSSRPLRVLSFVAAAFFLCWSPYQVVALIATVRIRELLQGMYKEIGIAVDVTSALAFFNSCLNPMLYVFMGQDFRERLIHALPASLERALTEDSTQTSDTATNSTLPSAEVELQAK

[3] = biological target: T5, Rac GTPase-activating protein 1 (Homo sapiens, UniProt Q9H0H5); assay: MgcRacGAP GTPase-activating activity inhibitors, confirmation, biochemical, ADP Hunter fluorescence, primary and confirmatory (AID 624330); assay type: functional
T5 sequence (Q9H0H5 whole entry): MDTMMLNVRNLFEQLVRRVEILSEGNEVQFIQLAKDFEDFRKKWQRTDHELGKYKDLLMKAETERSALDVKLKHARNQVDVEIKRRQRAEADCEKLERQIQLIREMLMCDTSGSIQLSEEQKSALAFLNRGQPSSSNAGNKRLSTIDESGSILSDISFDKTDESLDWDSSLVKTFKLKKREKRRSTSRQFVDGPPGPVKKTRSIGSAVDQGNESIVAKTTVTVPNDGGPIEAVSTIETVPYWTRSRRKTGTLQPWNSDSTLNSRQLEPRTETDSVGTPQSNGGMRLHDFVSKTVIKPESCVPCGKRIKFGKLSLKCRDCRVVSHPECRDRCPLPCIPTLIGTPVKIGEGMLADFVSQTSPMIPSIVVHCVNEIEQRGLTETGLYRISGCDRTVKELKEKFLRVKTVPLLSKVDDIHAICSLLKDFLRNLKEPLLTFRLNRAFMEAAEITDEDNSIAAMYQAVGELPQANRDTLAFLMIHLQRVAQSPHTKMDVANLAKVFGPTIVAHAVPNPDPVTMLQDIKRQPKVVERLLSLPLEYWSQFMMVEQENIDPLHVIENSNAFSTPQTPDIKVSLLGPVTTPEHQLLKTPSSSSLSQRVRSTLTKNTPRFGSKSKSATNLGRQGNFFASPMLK

Nonstructural protein 1 = Nonstructural protein 1 (Influenza A virus, UniProt Q194T2); assay type: functional, Influenza A virus (A/California/07/2009(H1N1))
Nonstructural protein 1, sequence (Q194T2 whole entry): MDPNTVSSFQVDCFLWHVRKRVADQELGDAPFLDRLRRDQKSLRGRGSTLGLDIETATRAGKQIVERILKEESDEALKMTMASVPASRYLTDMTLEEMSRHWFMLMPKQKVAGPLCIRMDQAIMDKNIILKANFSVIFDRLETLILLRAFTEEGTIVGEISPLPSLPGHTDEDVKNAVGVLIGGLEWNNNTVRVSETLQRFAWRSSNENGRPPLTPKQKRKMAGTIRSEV

With `COCCn1c(SCCCC(=O)c2ccc(Br)cc2)nnc1-c1ccncc1` the IC50 (Galanin receptor type 3) was 5.94 µM (active) and the EC50 (cells) was > 29.9 µM (inactive).

For `Cc1onc(-c2ccccc2)c1-c1nc2ccccc2c(=O)o1`, the IC50 (Galanin receptor type 3) was > 29.9 µM (inactive), the AC50 [1] was 1.31 µM (active) and the EC50 (cells) was > 29.9 µM (inactive). The EC50 (Protein RecA) was 1.11 µM (active).

In the case of `Cc1ccc(C(=O)NC(=S)/C=C2\N(C)c3ccccc3C2(C)C)cc1`, the AC50 (INS1) is reported as 2.33 µM (active) and the IC50 [2] is reported as > 122 µM (inactive).

In the case of `COc1cc(C2C(C(=O)c3ccc(C)o3)=C(O)C(=O)N2Cc2cccnc2)ccc1O` (configuration not stated), the Ki (fMet-Leu-Phe receptor) is reported as > 66.7 µM (inactive).

In the case of `CCOC(=O)CCN(c1ccccc1)S(=O)(=O)c1ccc(-c2ccc(O)nn2)s1`, the IC50 (Galanin receptor type 3) is reported as 4.41 µM (active) and the EC50 (cells) is reported as > 29.9 µM (inactive).

For `COc1cc(OC)c(C2Nc3cccc4cccc(c34)N2)c(OC)c1`, the IC50 [3] was 65.2 µM (active), the IC50 (Nonstructural protein 1) was > 100 µM (active) and the IC50 [2] was 83.1 µM (inactive).

With `CSCCC1C(C#N)=C(N)Oc2[nH]nc(-c3cccs3)c21` (configuration not stated) the Ki (fMet-Leu-Phe receptor) was > 66.7 µM (inactive), the AC50 [1] was 3.12 µM (active) and the EC50 (Protein RecA) was 1.43 µM (active).
